Source: US20130130306A1, “ZN (II) BASED COLORIMETRIC SENSOR AND PROCESS FOR THE PREPARATION THEREOF” (COUNCIL OF SCIENTIFIC & INDUSTRIAL RESEARCH, priority 2010, published 2013)

Experiments:
[1] = Absorption and 31P NMR study of binding to various anions
Description: In order to examine the binding behaviour of the Zn-complex (L.Zn) (Scheme 1, Formula 1A) to various important anions (like ATP, CTP, ADP, AMP, PPi, H2PO4^−, SO4^2−, CH3CO2^−, I^−, Br^−, Cl^− and F^−) the following experiment was conducted. A solution (˜21 mM) for of sodium salts of ATP, CTP, ADP, AMP, PPi, H2PO4^−, SO4^−, CH3CO2^−, I^−, Br^−, Cl^−, and F^− were prepared using respective salt in 10 mM HEPES buffer solutions (pH 7.2) and was stored for use. Further, a solution (44.35 μM) of the compound L.Zn (Scheme 1, Formula 1A) was prepared using doubly-distilled and deionized water and stored. These stored solutions were used on the day of preparation of the solution for experiment. […]

[2] = system: Pseudomonas fluorescence (Gram −ve); assay: Staining of Gram −ve bacteria, light microscopy and growth kinetics; assay type: cell-based; parameters: change in color of bacterial stains: dose or concentration left out as unconfirmed; settings: for growth of colonies streaked on nutrient agar plates after incubation with sensor: Pseudomonas species in King's B media, 25° C., 10 mins
Description: The isolates of Saccharomyces sp. were cultured in GYE (glucose yeast extract agar) media, Bacillus sp. in Nutrient broth, and Pseudomonas sp. in King's B medium for 24 hour at 37° C. […] of this was taken and was allowed to incubate at 30 to 40° C. along with 100 μl of L.Zn (Scheme 1, Formula 1A) (1.16×10^−4 M) solution. The samples were fixed overnight at room temperature 25-30° C. with 2% (v/v) glutaraldehyde in 0.1 M phosphate buffer at pH 7.5. The samples were then washed with 0.1 M phosphate buffer (pH 7.5) at room temperature 25-30° C. for 1 hour. Post-fixation was carried out in 2% (w/v) osmium tetroxide (OsO4) in the same buffer and was washed once with 0.1 M phosphate buffer for 20 minutes. Then, the water was removed by a graded water-ethanol series; 25% ethanol for 15 min, 50% ethanol for 15 min, 75% ethanol for 30 min, 90% ethanol for 60 min, absolute alcohol for 30 min. The specimens were rinsed in buffer and coated with gold in a sputter coater (Polaron SC7620) prior to microscopy. The material was examined in a Scanning Electron Microscope (SEM) LEO 1430 VP at an accelerating Voltage of 15 kV.
The isolates of Saccharomyces sp. were cultured in GYE (glucose yeast extract agar) media, Bacillus sp. in Nutrient broth, and Pseudomonas sp. in King's B medium for 24 hour at 37° C. 1001 of this was taken and was allowed to incubate at room temperature along with 1001 of [L.Zn]=1.16×10^−4M solution (pH 7.2, 10 mM HEPES buffer solution). The samples were fixed overnight at 25 to 35° C. with 2% (v/v) glutaraldehyde in 0.1 M phosphate buffer at pH 7.5. The samples were then; washed with 0.1 M phosphate buffer (pH 7.5) at 25 to 35° C. for 1 hour. Post-fixation was carried out in 2% (w/v) osmium tetroxide (OsO4) in the same buffer and was washed once with 0.1 M phosphate buffer for 20 minutes. Then, the water was removed by a graded water-ethanol series; 25% ethanol for 15 min, 50% ethanol for 15 min, 75% ethanol for 30 min, 90% ethanol for 60 min, absolute alcohol for 30 min. The specimens were rinsed in buffer and coated with gold in a sputter coater (Polaron SC7620) prior to microscopy. The material was examined in a scanning electron microscope (SEM) LEO 1430 VP at an accelerating Voltage of 15 kV.
We also explored the possibility of using L.Zn/L.Zn.α-CD as the staining agent for prokaryotes (Gram +ve and Gram −ve bacterial cells). […] As expected stained cells for Gram +ve bacteria appeared longer as compared to those of the stained Gram −ve bacteria. The difference in the staining intensity for two different bacteria with the L.Zn.α-CD (Scheme 2) could be much better understood after going into the depth of cell biology of each bacterial cells and the detailed biochemistry involved while staining; besides, difference in cell structure and cell wall composition of the respective bacteria. […] Changes on the cell surfaces on binding of the dye, L.Zn (Scheme 1, Formula 1A) were also evident from the SEM images recorded for Gram −ve and Gram +ve bacteria, in absence and presence of staining agent (FIGS. 11C to 11F). Difference in the contrasts in the SEM images of the sample surfaces also signifies the non-homogeneous chemical nature of the sample surface. […] The growth profile of Eukaryotic Yeast cells (Saccharomyces cerevisiae) and Prokaryotic bacterial cells ([…]) in an aqueous culture medium in absence and presence of L.Zn (Scheme 1, Formula 1A) are shown in FIG. 12. […]

CN(C)c1ccc(N=Nc2ccc(S(=O)(=O)N3CCCNCCNCCCNCC3)cc2)cc1.O=[N+]([O-])[O-].O=[N+]([O-])[O-].[Zn+2] [L.Zn]
observed binding preference / trend in binding affinity ([1]; 31P NMR and spectral data): ATP>>CTP>ADP>>AMP | change of absorption spectrum on addition of other anions ([1]; 2000 equivalents of other anions, pH 7.2): no change was observed | growth of colonies streaked on nutrient agar plates after incubation with sensor ([2]; sensor 1.0×10^−4 M): colonies of the test microbes grew | growth of colonies streaked on nutrient agar plates after incubation with sensor ([2]; sensor 1.25×10^−4 M): colonies of the test microbes grew | growth of colonies streaked on nutrient agar plates after incubation with sensor ([2]; sensor 1.45×10^−4 M): colonies of the test microbes grew | binding to ATP released during cell growth, Gram −ve compared to Gram +ve ([2]; extent of absorbance changes and slope, growth kinetics at 600 nm): higher binding | change in color of bacterial stains ([2]; light microscopy): distinct change in color
